Where a chain is given by its changes, count along the chain named. Where a SMILES comes first, the peptide text is derived from it. Bridges are numbered along the chain shown (N, C = ends).
Experiments:
Experiment in all cases: Heterologous whole cell competition binding
Conditions in all cases: heterologous competition of 125I-sCT(8-32), whole cells, mean ± S.E.M., SEM
hCTR I279A = target: T1, hCTR I279A (Homo sapiens, UniProt P30988, I279A)
T1 construct: expressed in transfected cells
T1 sequence (P30988 25-474 I279A): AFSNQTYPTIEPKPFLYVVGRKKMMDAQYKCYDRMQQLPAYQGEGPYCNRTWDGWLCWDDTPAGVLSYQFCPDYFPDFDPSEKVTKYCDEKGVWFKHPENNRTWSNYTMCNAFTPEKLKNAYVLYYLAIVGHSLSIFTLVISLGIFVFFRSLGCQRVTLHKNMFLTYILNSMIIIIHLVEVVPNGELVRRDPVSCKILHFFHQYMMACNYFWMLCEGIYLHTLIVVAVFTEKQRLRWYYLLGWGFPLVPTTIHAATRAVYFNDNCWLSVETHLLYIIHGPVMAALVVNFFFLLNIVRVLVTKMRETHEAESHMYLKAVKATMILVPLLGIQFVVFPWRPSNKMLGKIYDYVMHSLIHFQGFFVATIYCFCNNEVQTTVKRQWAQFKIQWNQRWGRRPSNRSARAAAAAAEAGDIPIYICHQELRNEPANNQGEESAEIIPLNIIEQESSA
Method: (§1) Following overnight incubation non-bound ligand was removed and radioactivity was determined using a gamma counter.
(§2) Data were corrected for radioligand occupancy using the Cheng-Prusoff equation in Prism; as such data are reported as pKi. Emax and EC50 were estimated from concentration-response curves using with a 3-parameter logistic equation in Prism (v7). These values are a composite of functional affinity, efficacy and stimulus response coupling. […] Significance was accepted at P < 0.05.

hCTR N365A = target: T2, hCTR N365A (Homo sapiens, UniProt P30988, N365A)
T2 construct: c-Myc (N); expressed in transfected cells
T2 sequence (P30988 25-474 N365A): T1 sequence (P30988 25-474 I279A) with A255I, N341A
Method: as §1, §2

hCTR R362A = target: T3, hCTR R362A (Homo sapiens, UniProt P30988, R362A)
T3 construct: expressed in transfected cells
T3 sequence (P30988 25-474 R362A): T1 sequence (P30988 25-474 I279A) with A255I, R338A
Method: as §1, §2

hCTR W361A = target: T4, hCTR W361A (Homo sapiens, UniProt P30988, W361A)
T4 construct: expressed in transfected cells
T4 sequence (P30988 25-474 W361A): T1 sequence (P30988 25-474 I279A) with A255I, W337A
Method: as §1, §2

hCTR Y284A = target: T5, hCTR Y284A (Homo sapiens, UniProt P30988, Y284A)
T5 construct: expressed in transfected cells
T5 sequence (P30988 25-474 Y284A): T1 sequence (P30988 25-474 I279A) with A255I, Y260A
Method: as §1, §2

CSCC[C@H](NC(=O)CNC(=O)[C@H](CO)NC(=O)[C@H](Cc1ccccc1)NC(=O)[C@H](CCCNC(=N)N)NC(=O)[C@H](Cc1c[nH]cn1)NC(=O)[C@H](Cc1ccccc1)NC(=O)[C@H](CC(N)=O)NC(=O)[C@H](CC(N)=O)NC(=O)[C@H](CC(C)C)NC(=O)[C@H](CC(N)=O)NC(=O)[C@H](CCCNC(=N)N)NC(=O)[C@H](Cc1c[nH]c2ccccc12)NC(=O)[C@H](Cc1ccc(O)cc1)NC(=O)[C@H](C)NC(=O)[C@H](CO)NC(=O)[C@H](CC(C)C)NC(=O)[C@@H](NC(=O)[C@@H]1CSSC[C@H](N)C(=O)N[C@@H](CO)C(=O)N[C@@H](CC(N)=O)C(=O)N[C@@H](CC(C)C)C(=O)N[C@@H](CO)C(=O)N[C@@H]([C@@H](C)O)C(=O)N1)C(C)C)C(=O)NCC(=O)N[C@@H](Cc1ccccc1)C(=O)NCC(=O)N1CCC[C@H]1C(=O)N[C@@H](CCC(=O)O)C(=O)N[C@H](C(=O)N1CCC[C@H]1C(N)=O)[C@@H](C)O [pCT] (H-CSNLSTCVLSAYWRNLNNFHRFSGMGFGPETP-NH2; disulfide 1-7)
Ki (hCTR I279A): 0.0148 µM
Ki (hCTR N365A): 0.00209 µM
Ki (hCTR R362A): 0.0468 µM
Ki (hCTR W361A): 0.0339 µM
Ki (hCTR Y284A): 0.0145 µM

Source: publication PMC5908784, “Extracellular loops 2 and 3 of the calcitonin receptor selectively modify agonist binding and efficacy” (Biochemical Pharmacology, 2018)
